Results: patent publication EP0400330A1, “Oxidation hair dyes” (Wella Aktiengesellschaft, priority 1989, dated 1990)

Assays:
[1] = Mutagenicity test battery (Ames, CA-Test, Mouse Lymphoma Test, SCE-Test), individual test not specified; format: cell-based; conditions: in some of the tests Ames, not said which
Description: (§1) Der große und überraschende technische Fortschritt, der bei der Verwendung von 2-(2,5-Diaminophenyl)ethanol mit den vorstehend genannten Kupplersubstanzen erzielt werden kann, liegt vielmehr in den physiologischen Eigenschaften begründet.

[2] = Sensitising property (test not described)
Description: Das 2-(2,5-Diaminophenyl)ethanol wird seit einiger Zeit als Bestandteil von Oxidationshaarfärbemitteln in der Patentliteratur erwähnt. Als möglicher Bestandteil von Oxidationshaarfärbemitteln ist es zum Beispiel in der eigenen europäischen Offenlegungsschrift 0 166 155 sowie in den eigenen deutschen Offenlegungsschriften 3 625 916, 3 627 398 und 3 706 565 sowie auch in der DE-OS 3 545 371 aufgeführt. Ferner fällt das 2-(2,5-Diaminophenyl)ethanol unter eine allgemeine Formel für 1-Hydroxyalkyl-2,5-diaminobenzolverbindungen, welche als Entwicklersubstanzen für Oxidationshaarfärbemittel in der eigenen europäischen Offenlegungsschrift 0 007 537 empfohlen werden. Die dort mehrfach konkret genannte Verbindung 1-Hydroxymethyl-2,5-diaminobenzol (2,5Diaminobenzylalkohol) hat sich jedoch als sensibilisierend erwiesen. Die ausgezeichnete Eignung der Entwicklersubstanz 2-(2,5-Diaminophenyl)-ethanol in Kombination mit den vorstehend genannten Kupplersubstanzen zur Lösung der gestellten Aufgabe wurde bisher nicht erkannt. Dementsprechend sind die erfindungsgemäßen EntwicklersubstanzKupplersubstanz-Kombinationen in keiner dieser Druckschriften beschrieben.
Die konkrete Darstellung des 2-(2,5-Diaminophenyl)ethanols ist bisher ebenfalls weder beschrieben noch hat diese Entwicklersubstanz Eingang in die Haarfärbepraxis gefunden. […]

[3] = test system: Salmonella typhimurium; experiment: Ames mutagenicity test of the developer substance; format: cell-based
Description: as §1

[4] = test system: CHO-Zellen; experiment: Chromosome aberration test in vitro (CA-Test); format: cell-based
Description: as §1

[5] = test system: Mouse Lymphoma; experiment: Mouse Lymphoma Test (point mutation in vitro); format: cell-based; conditions: Punktmutation in vitro
Description: as §1

[6] = Sister-Chromatide-Exchange-Test (SCE-Test); format: cell-based
Description: as §1

[7] = test system: Salmonella typhimurium-Stämmen TA97, TA98 und TA100; experiment: Ames test of dyed hair strands; format: cell-based; parameters: key: +: mutagen; (+): schwach mutagen; -: nicht mutagen; conditions: hair dyed 30 Minuten at 40 Grad Celsius, in Anwesenheit von S9-Mix
Description: Versuchsbedingungen: Haarsträhnchen aus 30-50 Haaren werden mit einem Mittel nach Beispiel 1, bei dem die Kupplersubstanz jeweils im äquimolaren Verhältnis zur Entwicklersubstanz enthalten war, getränkt. Die Strähnen wurden anschließend 30 Minuten lang bei 40 Grad Celsius im Klimaschrank aufbewahrt, sodann gründlich mit Wasser gespült und schließlich getrocknet. Die so gefärbten Haar wurden nun im 2,5 cm lange Stücke geschnitten und nach der Methodik von B.N. Ames an Salmonella typhimurium-Stämmen TA97, TA98 und TA100 in Anwesenheit von S9-Mix geprüft.

[8] = test system: Salmonella typhimurium; experiment: Ames test of hair dye solutions under oxidative conditions; conditions: hair dye solution containing the developer substance, unter oxidativen Bedingungen
[9] = Kupplersubstanz 2-Methylresorcin, äquimolar to the developer
[10] = Kupplersubstanz 3,4-Methylendioxyphenol, äquimolar to the developer
[11] = Kupplersubstanz 3-Aminophenol, äquimolar to the developer
[12] = Kupplersubstanz Resorcin, äquimolar to the developer

Compound | Mutagenität in einigen dieser Teste [1] | sensibilisierende Eigenschaften [2] | Mutagenität im Mutagenitätstest nach Ames ([3]; in Abwesenheit von Wasserstoffperoxid) | Mutagenität im Mutagenitätstest nach Ames ([3]; in Anwesenheit von Wasserstoffperoxid) | Mutagenität im Chromosomenaberrationstest an CHO-Zellen in vitro (CA-Test) [4] | Mutagenität im Mouse Lymphoma Test [5] | Mutagenität im Sister-Chromatide-Exchange-Test (SCE-Test) [6] | Amesteste von gefärbten Haarsträhnen [7, 9] | Amesteste von gefärbten Haarsträhnen [7, 10] | Amesteste von gefärbten Haarsträhnen [7, 11] | Amesteste von gefärbten Haarsträhnen [7, 12] | Amesteste von gefärbten Haarsträhnen ([7]; ohne Kupplersubstanz) | mutagene Wirkung von Haarfärbelösungen im Amestest [8]
Nc1ccc(N)c(CO)c1 [2,5-Diaminobenzylalkohol, 1-Hydroxymethyl-2,5-diaminobenzol] | mutagenes Potential | sensibilisierend |  |  |  |  |  |  |  |  |  |  | 
Nc1ccc(N)c(CCO)c1 [2-(2,5-Diaminophenyl)ethanol] |  |  | keinerlei Mutagenität | keinerlei Mutagenität | keinerlei Mutagenität | keinerlei Mutagenität | keinerlei Mutagenität | - | - | - | - | - | nicht mutagen
Nc1ccc(N)cc1 [p-Phenylendiamin, reference compound] |  |  |  |  |  |  |  | + | + | (+) | (+) | + | mutagenes Potential
